Several values for one entry are separate records, joined by “and”; a condition that tells them apart may be missing. Identical values can stand only once. Like-named read-outs stand apart in the source and are kept apart here.
How the values were obtained:
[1] = test system: cytokinin-dependent tobacco callus; test: Tobacco callus bioassay; type: cell-based; conditions: for EC50: Nicotiana tabacum
Description: Tobacco callus, Amaranthus and Wheat leaf senescence assay (WLSA) were performed as described by Holub et al. ([1998]) including the number of repetitions in each assay. An exception to the published protocols was that the tobacco callus assay was performed in 6-well microtiter plates (with each well containing 3 ml of Murashige Skoog medium into which 0.1 g of callus was added). Each compound was tested at least twice in each assay and in a wider concentration range to obtain concentration-dependent activity curves. IC50 means compound concentration at which chlorophyll degradation is inhibited by 50% and EC50 means half the maximal effective concentration.

[2] = test system: detached Arabidopsis leaves (chlorophyll loss in the dark); test: Arabidopsis leaf senescence assay; type: cell-based, Arabidopsis thaliana; conditions: for % of the chlorophyll retained: 0.01 μM; for % of the chlorophyll retained / % more of chlorophyll retained than DMSO (negative control): 12 days in the dark; for % more of chlorophyll retained than DMSO (negative control): 1 μM; for times more effective than BA in Arabidopsis leaf senescence assay: compared to the activity of BA in 1 μM
Description: Amaranthus assay evaluates the induction of betacyanin synthesis in Amaranthus (Amaranthus caudatus var. atropurpurea) cotyledons, which is induced by cytokinins (Bamberger and Mayer, [1960]). The WLSA evaluates the ability of compounds to retard chlorophyll degradation in excised wheat leaves that are kept in the dark. The wheat leaf segments (Triticum aestivum cv. Hereward) were used in all other experiments requiring wheat. Arabidopsis (Arabidopsis thaliana) leaf senescence assay was performed with detached leaves from 30-day-old plants, which were grown in soil in phytotron under standard conditions (Rivero et al., [2014]). Four leaves of a combined weight of 60 mg were placed in a six-well plate and stored in the dark for 12 days at 22°C. The leaves (except the fresh control leaves) floated on water solutions of tested compounds. Fresh control leaves were leaves detached from a plant and immediately used for chlorophyll determination. The duration of the senescence assay of Arabidopsis leaves was prolonged to highlight the difference in chlorophyll content between a negative control and treatments. Arabidopsis leaves were losing chlorophyll more slowly than wheat leaves. Chlorophyll extraction and spectrophotometric determination of its content was done according to Holub et al. ([1998]).

AHK3 = molecular target: T1, AHK3 (Arabidopsis thaliana, UniProt Q9C5U1); test: Cytokinin receptor activation assay in E. coli (AHK3); type: cell-based
T1 construct: expressed in transfected cells; host or cells: Escherichia coli strain KMI001, plasmid pSTV28-AHK3
T1 sequence (Q9C5U1 1-1036): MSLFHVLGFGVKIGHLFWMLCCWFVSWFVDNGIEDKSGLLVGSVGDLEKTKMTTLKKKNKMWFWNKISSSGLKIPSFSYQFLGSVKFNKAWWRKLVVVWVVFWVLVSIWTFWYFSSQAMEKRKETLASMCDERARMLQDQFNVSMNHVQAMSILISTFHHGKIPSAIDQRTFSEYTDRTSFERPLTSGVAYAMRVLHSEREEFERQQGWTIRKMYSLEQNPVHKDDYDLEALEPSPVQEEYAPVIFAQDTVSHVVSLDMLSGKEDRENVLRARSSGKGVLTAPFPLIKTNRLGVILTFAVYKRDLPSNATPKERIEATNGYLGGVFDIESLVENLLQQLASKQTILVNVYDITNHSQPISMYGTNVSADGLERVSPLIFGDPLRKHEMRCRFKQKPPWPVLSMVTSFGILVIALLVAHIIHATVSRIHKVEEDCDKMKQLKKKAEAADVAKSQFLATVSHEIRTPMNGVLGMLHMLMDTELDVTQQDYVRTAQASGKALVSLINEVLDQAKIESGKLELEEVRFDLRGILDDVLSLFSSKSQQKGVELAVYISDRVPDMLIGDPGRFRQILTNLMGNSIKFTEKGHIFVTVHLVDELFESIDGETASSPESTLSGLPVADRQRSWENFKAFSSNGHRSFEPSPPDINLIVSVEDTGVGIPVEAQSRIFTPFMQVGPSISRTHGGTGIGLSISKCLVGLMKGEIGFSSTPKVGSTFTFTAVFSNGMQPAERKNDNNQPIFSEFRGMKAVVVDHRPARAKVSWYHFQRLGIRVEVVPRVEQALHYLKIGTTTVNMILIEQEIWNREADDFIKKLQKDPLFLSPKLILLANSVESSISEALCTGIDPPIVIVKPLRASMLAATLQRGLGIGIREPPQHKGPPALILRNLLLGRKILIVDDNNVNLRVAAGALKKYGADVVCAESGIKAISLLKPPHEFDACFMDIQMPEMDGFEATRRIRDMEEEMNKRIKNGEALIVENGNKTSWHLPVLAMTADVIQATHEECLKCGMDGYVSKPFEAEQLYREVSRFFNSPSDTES
Description: The activity of this enzyme is finally measured in the assay and corresponds to the ability of the tested compound to activate this cytokinin receptor. Both assays were done at least twice and the presented graphs are the most representative examples.

[3] = test system: Arabidopsis thaliana roots; test: Arabidopsis root elongation assay; type: in vivo, Arabidopsis thaliana (wild-type Col-0); conditions: 0.1 μM, 14 days; for Arabidopsis root growth (length): control 3.5 cm
Description: (§1) Seeds of Triticum aestivum were surface sterilized by washing with 96% ethanol (10 min) and sown in a hydroponic growing system (Araponics, Liege, Belgium) using Hoagland's solution supplemented with either 0.1 μM TDZ, 0.1 μM ASES or 0.01% DMSO (solvent control). The plants were grown in a growth chamber at 25°C with a 16/8 h light period at 130 μM m^−2s^−1. The root lengths of at least 50 plants were measured 2 weeks after the plants had been sown. Seeds of Arabidopsis thaliana (wild-type Col-0) were surface sterilized by the same procedure as seeds of wheat and sown on vertical plates using half-strength Murashige-Skoog medium (supplemented with 0.1% sucrose and 6 g/L phytagel) containing either 0.1 μM TDZ, 0.1 μM ASES or 0.01% DMSO (solvent control). After vernalization (4 days in the dark, 4°C), the plates were transferred into a growth chamber (22°C, 16/8 light/dark, 130 μM m^−2s^−1). Root elongation was scored 2 weeks after the transfer, with measurements from at least 40 plants for each treatment. The whole experiment was repeated twice.

Triticum aestivum roots = test: Wheat root elongation assay; type: in vivo; conditions: 0.1 μM, 14-day-old plants; control 10.4 cm
Description: as §1

[4] = test system: detached wheat leaves (membrane lipid peroxidation); test: TBARS content (lipid peroxidation) in leaves from WLSA; type: cell-based, Triticum aestivum; conditions: 5 days in the dark, DMSO control = 100%
Description: Four leaf segments of combined weight of 100 mg from WLSA (5 days in the dark) were used for the determination of TBARS. Each sample was done in five repetitions (5 × 100 mg). The peroxidation of leaf membrane lipids was determined as described by Kováčik et al. ([2006]), with minor modifications—wheat leaves were extracted with 80% methanol and the trichloroacetic acid content was decreased to 0.1%.

EC50 ([1]; half the maximal effective concentration, N.A. = not active, read-out: Tobacco callus bioassay (EC50)) [µM]	Tobacco callus bioassay (EC50, μM) ([1]; half the maximal effective concentration, N.A. = not active)	EC50 (AHK3; E. coli bacterial receptor assay, read-out: AHK3 receptor activation EC50) [nM]	Compound	cell division stimulatory effect, times lower than that of TDZ [1]	% of the chlorophyll retained [2]	% more of chlorophyll retained than DMSO (negative control) [2] [%]	times more effective than BA in Arabidopsis leaf senescence assay [2]	Arabidopsis root growth (length) [3] [cm]	wheat root length (Triticum aestivum roots) [cm]	TBARS content (relative %) ([4]; 0.01 μM)	TBARS content (relative %) ([4]; 0.1 μM)	TBARS content (relative %) ([4]; 1 μM)	TBARS content (relative %) ([4]; 10 μM)	TBARS content (relative %) ([4]; 100 μM, fresh control = 0)	EC50 ([1]; read-out: Tobacco callus bioassay (EC50, μM)) [µM]	EC50 (AHK3) [nM]	reduction of Arabidopsis root growth compared to the control [3] [%]
0.68	sub-micromolar range	> 50000	COCCNC(=O)Nc1cnns1 [ASES, 1-(2-methoxy-ethyl)-3-1,2,3-thiadiazol-5-yl-urea]	more than 700 times	more than 55%	96	approximately 100 times	4.2	11.0	105 (±5) %	91 (±10) %	47 (±4) %	31 (±5) %	24 (±6) % and 24%			
			O=C(Nc1ccccc1)Nc1cnns1 [TDZ, 1-phenyl-3-(1,2,3-thiadiazol-5-yl)urea, reference compound]		more than 55%	85	approximately 100 times	1.7	3.2	101 (±5) %	80 (±3) %	71 (±6) %	68 (±8) %	55 (±10) %	0.001	105	50

— PMC6142817, “New Urea Derivatives Are Effective Anti-senescence Compounds Acting Most Likely via a Cytokinin-Independent Mechanism” (Frontiers in Plant Science, 2018)
